Results: ChEMBL document CHEMBL4665869, “New thiazolopyrimidine as anticancer agents: Synthesis, biological evaluation, DNA binding, molecular modeling and ADMET study” (Bioorg Med Chem Lett, 2020)
Converted amounts (≈) assume the structure as drawn.

Columns and labels:
ACHN = assay: Growth inhibition of human ACHN cells at 10 uM relative to control; assay type: functional; details: read-out: GI
LOX IMVI = assay: Growth inhibition of human LOX IMVI cells at 10 uM relative to control; assay type: functional; details: read-out: GI
CAKI-1 = assay: Growth inhibition of human CAKI-1 cells at 10 uM relative to control; assay type: functional; details: read-out: GI
DU-145 = assay: Growth inhibition of human DU-145 cells at 10 uM relative to control; assay type: functional; details: read-out: GI
T47D = assay: Growth inhibition of human T47D cells at 10 uM relative to control; assay type: functional; details: read-out: GI
NCI/ADR-RES = assay: Growth inhibition of human NCI/ADR-RES cells at 10 uM relative to control; assay type: functional; details: read-out: GI
TK-10 = assay: Growth inhibition of human TK-10 cells at 10 uM relative to control; assay type: functional; details: read-out: GI
OVCAR-4 = assay: Growth inhibition of human OVCAR-4 cells at 10 uM relative to control; assay type: functional; details: read-out: GI
SR = assay: Growth inhibition of human SR cells at 10 uM relative to control; assay type: functional; details: read-out: GI
HOP-62 = assay: Growth inhibition of human HOP-62 cells at 10 uM relative to control; assay type: functional; details: read-out: GI
A498 = assay: Growth inhibition of human A498 cells at 10 uM relative to control; assay type: functional; details: read-out: GI
SK-MEL-2 = assay: Growth inhibition of human SK-MEL-2 cells at 10 uM relative to control; assay type: functional; details: read-out: GI
IGROV-1 = assay: Growth inhibition of human IGROV-1 cells at 10 uM relative to control; assay type: functional; details: read-out: GI
RXF 393 = assay: Growth inhibition of human RXF 393 cells at 10 uM relative to control; assay type: functional; details: read-out: GI
PC-3 = assay: Growth inhibition of human PC-3 cells at 10 uM relative to control; assay type: functional; details: read-out: GI
NCI-H322M = assay: Growth inhibition of human NCI-H322M cells at 10 uM relative to control; assay type: functional; details: read-out: GI
COLO 205 = assay: Growth inhibition of human COLO 205 cells at 10 uM relative to control; assay type: functional; details: read-out: GI
SF-539 = assay: Growth inhibition of human SF-539 cells at 10 uM relative to control; assay type: functional; details: read-out: GI
RPMI-8226 = assay: Growth inhibition of human RPMI-8226 cells at 10 uM relative to control; assay type: functional; details: read-out: GI
A549 = assay: Growth inhibition of human A549 cells at 10 uM relative to control; assay type: functional; details: read-out: GI
KM12 = assay: Growth inhibition of human KM12 cells at 10 uM relative to control; assay type: functional; details: read-out: GI
SNB-19 = assay: Growth inhibition of human SNB-19 cells at 10 uM relative to control; assay type: functional; details: read-out: GI
OVCAR-5 = assay: Growth inhibition of human OVCAR-5 cells at 10 uM relative to control; assay type: functional; details: read-out: GI
U-251 = assay: Growth inhibition of human U-251 cells at 10 uM relative to control; assay type: functional; details: read-out: GI
NCI-H23 = assay: Growth inhibition of human NCI-H23 cells at 10 uM relative to control; assay type: functional; details: read-out: GI
HL-60(TB) = assay: Growth inhibition of human HL-60(TB) cells at 10 uM relative to control; assay type: functional; details: read-out: GI
MDA-MB-231 = assay: Growth inhibition of human MDA-MB-231 cells at 10 uM relative to control; assay type: functional; details: read-out: GI
M14 = assay: Growth inhibition of human M14 cells at 10 uM relative to control; assay type: functional; details: read-out: GI
SK-MEL-28 = assay: Growth inhibition of human SK-MEL-28 cells at 10 uM relative to control; assay type: functional; details: read-out: GI
SK-OV-3 = assay: Growth inhibition of human SK-OV-3 cells at 10 uM relative to control; assay type: functional; details: read-out: GI
MOLT-4 = assay: Growth inhibition of human MOLT-4 cells at 10 uM relative to control; assay type: functional; details: read-out: GI
CCRF-CEM = assay: Growth inhibition of human CCRF-CEM cells at 10 uM relative to control; assay type: functional; details: read-out: GI
SK-MEL-5 = assay: Growth inhibition of human SK-MEL-5 cells at 10 uM relative to control; assay type: functional; details: read-out: GI
HOP-92 = assay: Growth inhibition of human HOP-92 cells at 10 uM relative to control; assay type: functional; details: read-out: GI
NCI-H460 = assay: Growth inhibition of human NCI-H460 cells at 10 uM relative to control; assay type: functional; details: read-out: GI
DNA = assay: Displacement of methyl green from DNA (unknown origin) assessed as DNA intercalation after 24 hrs by colorimetric assay; assay type: nucleic-acid assay
K562 = assay: Growth inhibition of human K562 cells at 10 uM relative to control; assay type: functional; details: read-out: GI
HCT-15 = assay: Growth inhibition of human HCT-15 cells at 10 uM relative to control; assay type: functional; details: read-out: GI
UACC-257 = assay: Growth inhibition of human UACC-257 cells at 10 uM relative to control; assay type: functional; details: read-out: GI
Hs-578T = assay: Growth inhibition of human Hs-578T cells at 10 uM relative to control; assay type: functional; details: read-out: GI
SW-620 = assay: Growth inhibition of human SW-620 cells at 10 uM relative to control; assay type: functional; details: read-out: GI
MDA-MB-435 = assay: Growth inhibition of human MDA-MB-435 cells at 10 uM relative to control; assay type: functional; details: read-out: GI
SNB-75 = assay: Growth inhibition of human SNB-75 cells at 10 uM relative to control; assay type: functional; details: read-out: GI
SF-295 = assay: Growth inhibition of human SF-295 cells at 10 uM relative to control; assay type: functional; details: read-out: GI
NCI-H226 = assay: Growth inhibition of human NCI-H226 cells at 10 uM relative to control; assay type: functional; details: read-out: GI
MCF7 = assay: Growth inhibition of human MCF7 cells at 10 uM relative to control; assay type: functional; details: read-out: GI
786-0 = assay: Growth inhibition of human 786-0 cells at 10 uM relative to control; assay type: functional; details: read-out: GI
Malme-3M = assay: Growth inhibition of human Malme-3M cells at 10 uM relative to control; assay type: functional; details: read-out: GI
HCC 2998 = assay: Growth inhibition of human HCC 2998 cells at 10 uM relative to control; assay type: functional; details: read-out: GI
UACC-62 = assay: Growth inhibition of human UACC-62 cells at 10 uM relative to control; assay type: functional; details: read-out: GI
BT-549 = assay: Growth inhibition of human BT-549 cells at 10 uM relative to control; assay type: functional; details: read-out: GI
MDA-MB-468 = assay: Growth inhibition of human MDA-MB-468 cells at 10 uM relative to control; assay type: functional; details: read-out: GI
UO-31 = assay: Growth inhibition of human UO-31 cells at 10 uM relative to control; assay type: functional; details: read-out: GI
HT-29 = assay: Growth inhibition of human HT-29 cells at 10 uM relative to control; assay type: functional; details: read-out: GI
SN12C = assay: Growth inhibition of human SN12C cells at 10 uM relative to control; assay type: functional; details: read-out: GI
OVCAR-8 = assay: Growth inhibition of human OVCAR-8 cells at 10 uM relative to control; assay type: functional; details: read-out: GI
NCI-H522 = assay: Growth inhibition of human NCI-H522 cells at 10 uM relative to control; assay type: functional; details: read-out: GI
SF-268 = assay: Growth inhibition of human SF-268 cells at 10 uM relative to control; assay type: functional; details: read-out: GI
HCT-116 = assay: Growth inhibition of human HCT-116 cells at 10 uM relative to control; assay type: functional; details: read-out: GI

## CC1=CSC2=NC(/C=C/c3cccs3)=CC(c3cccs3)N12 (centres undefined)
ACHN
  inhibition of growth at 10 µM: < 10%
LOX IMVI
  inhibition of growth at 10 µM: < 10%
CAKI-1
  inhibition of growth at 10 µM: < 10%
DU-145
  inhibition of growth at 10 µM: < 10%
T47D
  inhibition of growth at 10 µM: < 10%
NCI/ADR-RES
  inhibition of growth at 10 µM: < 10%
TK-10
  inhibition of growth at 10 µM: < 10%
OVCAR-4
  inhibition of growth at 10 µM: < 10%
SR
  inhibition of growth at 10 µM: < 10%
HOP-62
  inhibition of growth at 10 µM: < 10%
A498
  inhibition of growth at 10 µM: < 10%
SK-MEL-2
  inhibition of growth at 10 µM: < 10%
IGROV-1
  inhibition of growth at 10 µM: < 10%
RXF 393
  inhibition of growth at 10 µM: < 10%
PC-3
  inhibition of growth at 10 µM: < 10%
NCI-H322M
  inhibition of growth at 10 µM: < 10%
COLO 205
  inhibition of growth at 10 µM: < 10%
SF-539
  inhibition of growth at 10 µM: < 10%
RPMI-8226
  inhibition of growth at 10 µM: < 10%
A549
  inhibition of growth at 10 µM: < 10%
KM12
  inhibition of growth at 10 µM: < 10%
SNB-19
  inhibition of growth at 10 µM: < 10%
OVCAR-5
  inhibition of growth at 10 µM: < 10%
U-251
  inhibition of growth at 10 µM: < 10%
NCI-H23
  inhibition of growth at 10 µM: < 10%
HL-60(TB)
  inhibition of growth at 10 µM: < 10%
MDA-MB-231
  inhibition of growth at 10 µM: < 10%
M14
  inhibition of growth at 10 µM: < 10%
SK-MEL-28
  inhibition of growth at 10 µM: < 10%
SK-OV-3
  inhibition of growth at 10 µM: < 10%
MOLT-4
  inhibition of growth at 10 µM: < 10%
CCRF-CEM
  inhibition of growth at 10 µM: < 10%
SK-MEL-5
  inhibition of growth at 10 µM: < 10%
HOP-92
  inhibition of growth at 10 µM: < 10%
NCI-H460
  inhibition of growth at 10 µM: < 10%
DNA
  IC50: 39.82 µg/mL (≈ 116 µM)
K562
  inhibition of growth at 10 µM: < 10%
HCT-15
  inhibition of growth at 10 µM: < 10%
UACC-257
  inhibition of growth at 10 µM: < 10%
Hs-578T
  inhibition of growth at 10 µM: < 10%
SW-620
  inhibition of growth at 10 µM: < 10%
MDA-MB-435
  inhibition of growth at 10 µM: < 10%
SNB-75
  inhibition of growth at 10 µM: < 10%
SF-295
  inhibition of growth at 10 µM: < 10%
NCI-H226
  inhibition of growth at 10 µM: < 10%
MCF7
  inhibition of growth at 10 µM: < 10%
786-0
  inhibition of growth at 10 µM: < 10%
Malme-3M
  inhibition of growth at 10 µM: < 10%
HCC 2998
  inhibition of growth at 10 µM: < 10%
UACC-62
  inhibition of growth at 10 µM: < 10%
BT-549
  inhibition of growth at 10 µM: < 10%
MDA-MB-468
  inhibition of growth at 10 µM: < 10%
UO-31
  inhibition of growth at 10 µM: < 10%
HT-29
  inhibition of growth at 10 µM: < 10%
SN12C
  inhibition of growth at 10 µM: < 10%
OVCAR-8
  inhibition of growth at 10 µM: < 10%
NCI-H522
  inhibition of growth at 10 µM: 13.3%
SF-268
  inhibition of growth at 10 µM: < 10%
HCT-116
  inhibition of growth at 10 µM: < 10%
